Measurements published in patent publication US11466013B2 (Betta Pharmaceuticals Co., LTD, priority 2018, dated 2022).

What was measured:
HCT 116 cells = assay: Cell proliferation assay (HCT 116), Cell-titer Glo; type: cell-based; conditions: Homo sapiens, 120 h incubation
Description: (§1) The HCT 116 cells were paved in a 96-well plate at 1200 cells, 160 μL/well. After incubating overnight, the compound solutions of gradient concentration was prepared, and 40 μL of DMSO solution of the test compound of each concentration was added to the cells of each well. The final concentration of the compound was 30000, 10000, 3333.3, 1111.1, 370.4, 123.5, 41.2, 13.7, 4.6, 0 nM (the final concentration of DMSO was 0.5%). 5% CO2 was incubated for 120 h at 37° C. 50 μL of Cell-titer Glo working solution was added to each well, shaked and mixed, and incubated at room temperature for 10 minutes. The multi-functional microplate reader read the luminescence value, and converted the luminescence value reading into inhibition percentage. Inhibition percentage=(maximum value−reading)/(maximum value−minimum value)*100.
The “maximum value” was the DMSO control, the “minimum value” indicated the cell-free control group.
(§2) Graphpad Prism software was used to perform curve fitting and obtain IC50 value.

COLO205 cells = assay: Cell proliferation assay (COLO205), Cell-titer Glo; type: cell-based; conditions: Homo sapiens, COLO 205, 120 h incubation
Description: as §1, with “COLO205” for “The HCT 116”, “spread into” for “paved in”, “135 μL/well at 2000 cells.” for “1200 cells, 160 μL/well.”, “overnight,” for “overnight, the”, “added 15” for “40”, “concentration” for “concentration was added”
The “maximum value” was the DMSO control, the “minimum value” indicates the cell-free control group.
as §2

ERK2 = ERK2 (Homo sapiens, UniProt P28482); assay: Kinase assay (Caliper, FAM-labeled peptide), ERK2; type: biochemical
ERK2, sequence (P28482 whole entry): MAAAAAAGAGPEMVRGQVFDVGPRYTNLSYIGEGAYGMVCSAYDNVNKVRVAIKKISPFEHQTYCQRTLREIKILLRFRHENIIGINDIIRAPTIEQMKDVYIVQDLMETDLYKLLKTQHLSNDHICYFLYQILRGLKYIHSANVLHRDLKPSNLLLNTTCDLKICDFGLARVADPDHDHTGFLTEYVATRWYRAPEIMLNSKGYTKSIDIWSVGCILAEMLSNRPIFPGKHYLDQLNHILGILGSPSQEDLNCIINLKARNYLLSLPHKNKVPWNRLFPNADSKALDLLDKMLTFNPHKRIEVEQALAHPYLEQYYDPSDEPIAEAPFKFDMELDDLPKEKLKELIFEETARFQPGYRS
Outline: (§3)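 Kinase preincubated 10 min at room temperature with serially diluted compound before FAM-labeled peptide plus ATP added; reaction run at 28 °C, then stopped. Substrate conversion read by Caliper mobility shift, normalized to DMSO and low controls, curve-fitted for IC50.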

ERK1 = ERK1 (Homo sapiens, UniProt P27361); assay: Kinase assay (Caliper, FAM-labeled peptide), ERK1; type: biochemical
ERK1, sequence (P27361 whole entry): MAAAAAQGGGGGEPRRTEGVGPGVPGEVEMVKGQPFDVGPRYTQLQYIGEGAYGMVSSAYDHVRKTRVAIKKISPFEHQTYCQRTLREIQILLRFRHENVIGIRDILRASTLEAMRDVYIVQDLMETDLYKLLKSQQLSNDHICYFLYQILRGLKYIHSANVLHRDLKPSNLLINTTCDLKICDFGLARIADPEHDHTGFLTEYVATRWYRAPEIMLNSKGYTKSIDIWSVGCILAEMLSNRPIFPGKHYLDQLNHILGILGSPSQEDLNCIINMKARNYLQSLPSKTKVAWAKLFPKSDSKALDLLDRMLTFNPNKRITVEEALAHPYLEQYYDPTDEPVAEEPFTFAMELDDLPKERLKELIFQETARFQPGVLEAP
Outline: as §3

SMILES	IC50 (HCT 116 cells)	IC50 (COLO205 cells)	IC50 (ERK2)	IC50 (ERK1)
COC[C@H]1Cn2cc(-c3nc(NC4CCOCC4)ncc3Cl)cc2C(=O)N1Cc1cc(F)ccc1CO [Example 130, (R)-7-(5-chloro-2-((tetrahydro-2h-pyran-4-yl)amino)pyrimidin-4-yl)-2-(5-fluoro-2-(hydroxymethyl)benzyl)-3-(methoxymethyl)-3.4-dihydropyrrolo[1,2-a] pyrazine-1(2H)-one]	0.0053 µM	0.0204 µM	–	–
COC[C@H]1Cn2cc(-c3nc(Nc4ccnn4C)ncc3C)nc2C(=O)N1Cc1ccc(F)c(F)c1 [AZD0364, reference compound]	0.083 µM	0.0724 µM	–	–
Cn1nccc1Nc1cc(-c2cc3n(c2)CCN(Cc2cc(F)cc(F)c2)C3=O)c(Cl)cn1 [Example D10, 7-(5-chloro-2-((1-methyl-1h-pyrazole-5-yl)amino)pyridine-4-yl)-2-(3,5-difluorobenzyl)-3,4-dihydropyrrolo[1,2-a] pyrazine-1(2H)-one, reference compound]	0.0523 µM	–	–	–
Cn1nccc1Nc1cc(-c2cc3n(c2)CCN(Cc2cccc(F)c2)C3=O)c(Cl)cn1 [Example D9, 7-(5-chloro-2-((1-methyl-1h-pyrazole-5-yl)amino)pyridine-4-yl)-2-(3-fluorobenzyl)-3,4-dihydropyrrolo[1,2-a] pyrazine-1(2H)-one, reference compound]	0.0536 µM	–	–	–
Cc1cnc(Nc2ccnn2C)cc1-c1cc2n(c1)CCN(Cc1cc(F)ccc1CO)C2=O [Example 152, 2-(5-fluoro-2-(hydroxymethyl)benzyl)-7-(5-methyl-2-((1-methyl-1h-pyrazole-5-yl)amino)pyridine-4-yl)-3,4-dihydropyrrolo[1,2-a] pyrazine-1(2H)-one]	0.0076 µM	0.0143 µM	0.3 nM	–
COC[C@H]1Cn2cc(-c3cc(N[C@H]4CC[C@H](O)CC4)ncc3Cl)cc2C(=O)N1Cc1cc(F)ccc1CO [Example 71, (R)-7-(5-chloro-2-(((1R,4R)-4-hydroxycyclohexyl)amino)pyridine-4-yl)-2-(5-fluoro-2-(hydroxymethyl)benzyl)-3-(methoxymethyl)-3,4-dihydropyrrolo[1,2-a] pyrazine-1(2H)-one]	0.027 µM	–	1.4 nM	1.1 nM
Cn1nccc1Nc1cc(-c2cc3n(c2)CCN(Cc2cc(F)ccc2CO)C3=O)c(C(F)(F)F)cn1 [Example 161, (5-fluoro-2-(hydroxylmethyl)benzyl)-7-(2-((1-methyl-1h-pyrazole-5-yl)amino)-5-(trifluoromethyl)pyridin-4-yl)-3,4-dihydropyrrolo [1,2-a]pyrazine-1(2H)-one]	0.0246 µM	–	–	–
Cc1cnc(NC2CCOC2)nc1-c1cc2n(c1)CCN(Cc1cc(F)ccc1CO)C2=O (stereo not shown) [Example 33, 2-(5-fluoro-2-(hydroxymethyl)benzyl)-7-(5-methyl-2-((tetrahydrofuran-3-yl)amino)pyrimidin-4-yl)-3,4-dihydropyrrolo[1,2-a]pyrazine-1(2H)-one]	–	0.076 µM	0.4 nM	0.45 nM
CC(C)Nc1cc(-c2cc3n(c2)CC2(COC2)CN(Cc2cc(F)c(F)cc2CO)C3=O)c(Cl)cn1 [Example 17]	–	0.025 µM	0.4 nM	0.47 nM

The remaining lines, values ahead:

IC50 (HCT 116 cells)	IC50 (COLO205 cells)	IC50 (ERK2)	IC50 (ERK1)	SMILES
0.0162 µM	–	–	–	COC[C@H]1Cn2cc(-c3cc(Nc4ccnn4C(F)F)ncc3Cl)cc2C(=O)N1Cc1cc(F)ccc1CO [Example 54, (R)-7-(5-chloro-2-((1-(difluoromethyl)-1H-pyrazol-5-yl)amino)pyridin-4-yl)-2-(5-fluoro-2-(hydroxymethyl)benzyl)-3-(methoxymethyl)-3,4-dihydropyrrolo[1,2-a]pyrazine-1(2H)-ketone]
0.023 µM	–	–	–	COC[C@H]1Cn2cc(-c3cc(Nc4conc4C)ncc3Cl)cc2C(=O)N1Cc1cc(F)ccc1CO [Example 83, (R)-7-(5-chloro-2-((3-methylisoxazole-4-yl)amino)pyridine-4-yl)-2-(5-fluoro-2-(hydroxymethyl)benzyl)-3-(methoxymethyl)-3,4-dihydropyrrolo[1,2-a] pyrazine-1(2H)-one]
0.0095 µM	0.0178 µM	–	–	Cn1nccc1Nc1cc(-c2cc3n(c2)CCN(Cc2cccc(F)c2CO)C3=O)c(Cl)cn1 [Example 150, 7-(5-chloro-2-((1-methyl-1h-pyrazole-5-yl)amino)pyridine-4-yl)-2-(3-fluoro-2-(hydroxymethyl)benzyl)-3,4-dihydropyrrolo[1,2-a] pyrazine-1(2H)-one]
0.0199 µM	0.019 µM	–	–	COC[C@H]1Cn2cc(-c3cc(Nc4ccnn4C)ncc3C(F)(F)F)cc2C(=O)N1Cc1cc(F)ccc1CO [Example 100, (R)-2-(5-fluoro-2-(hydroxymethyl)benzyl)-3-(methoxymethyl)-7-(2-((1-methyl-1h-pyrazole-5-yl)amino)-5-(trifluoromethyl)pyridin-4-yl)-3,4-dihydropyrrolo [1,2-a]pyrazine-1(2H)-one]
0.009 µM	0.0107 µM	–	–	COC[C@H]1Cn2cc(-c3cc(Nc4ccnn4C)ncc3Cl)cc2C(=O)N1Cc1cccc(F)c1CO [Example 98, (R)-7-(5-chloro-2-((1-methyl-1h-pyrazole-5-yl)amino)pyridine-4-yl)-2-(3-fluoro-2-(hydroxymethyl)benzyl)-3-(methoxymethyl)-3,4-dihydropyrrolo[1,2-a] pyrazine-1(2H)-one]
0.0084 µM	0.011 µM	0.59 nM	–	COC[C@H]1Cn2cc(-c3cc(Nc4ccnn4C)ncc3Cl)cc2C(=O)N1Cc1cc(F)c(F)c(F)c1CO [Example 168, (R)-7-(5-chloro-2-((1-methyl-1h-pyrazole-5-yl)amino)pyridine-4-yl)-3-(methoxymethyl)-2-(3,4,5-fluoro-2-(hydroxymethyl)benzyl)-3,4-dihydropyrrolo[1,2-a] pyrazine-1(2H)-one]
0.0069 µM	0.0069 µM	0.9 nM	–	COC[C@H]1Cn2cc(-c3cc(Nc4ccnn4C)ncc3Cl)cc2C(=O)N1Cc1cc(F)c(F)cc1CO [Example 95, (R)-7-(5-chloro-2-((1-methyl-1h-pyrazole-5-yl)amino)pyridine-4-yl)-2-(4,5-difluoro-2-(hydroxymethyl)benzyl)-3-(methoxymethyl)-3,4-dihydropyrrolo[1,2-a] pyrazine-1(2H)-one]
0.0188 µM	0.0154 µM	0.62 nM	–	COC[C@H]1Cn2cc(-c3nc(Nc4ccnn4C)ncc3C(F)(F)F)cc2C(=O)N1Cc1cc(F)ccc1CO [Example 163, (R)-2-(5-fluoro-2-(hydroxymethyl)benzyl)-3-(methoxymethyl)-7-(2-((1-methyl-1h-pyrazole-5-yl)amino)-5-(trifluoromethyl)pyrimidin-4-yl)-3,4-dihydropyrrolo[1,2-a] pyrazine-1(2H)-one]
0.0116 µM	0.0064 µM	–	–	COC[C@H]1Cn2cc(-c3cc(Nc4ccnn4C)ncc3C)cc2C(=O)N1Cc1cc(F)ccc1CO [Example 102, (R)-2-(5-fluoro-2-(hydroxymethyl)benzyl)-3-(methoxymethyl)-7-(5-methyl-2-((1-methyl-1h-pyrazole-5-yl)amino)pyridine-4-yl)-3,4-dihydropyrrolo[1,2-a] pyrazine-1(2H)-one]
0.0212 µM	–	–	–	Cn1nccc1Nc1cc(-c2cc3n(c2)CCN(Cc2ccc(F)cc2CO)C3=O)c(Cl)cn1 [Example 149, 7-(5-chloro-2-((1-methyl-1h-pyrazole-5-yl)amino)pyridine-4-yl)-2-(4-fluoro-2-(hydroxymethyl)benzyl)-3,4-dihydropyrrolo[1,2-a] pyrazine-1(2H)-one]
0.0107 µM	0.0114 µM	0.89 nM	–	Cn1nccc1Nc1cc(-c2cc3n(c2)CCN(Cc2cc(F)c(F)cc2CO)C3=O)c(Cl)cn1 [Example 160, 7-(5-chloro-2-((1-methyl-1h-pyrazole-5-yl)amino)pyridine-4-yl)-2-(4,5-difluoro-2-(hydroxymethyl)benzyl)-3,4-dihydropyrrolo[1,2-a] pyrazine-1(2H)-one]
0.018 µM	0.0217 µM	–	–	COC[C@H]1Cn2cc(-c3cc(Nc4ccnn4C)ncc3Cl)cc2C(=O)N1Cc1ccc(F)cc1CO [Example 99, (R)-7-(5-chloro-2-((1-methyl-1h-pyrazole-5-yl)amino)pyridine-4-yl)-2-(4-fluoro-2-(hydroxymethyl)benzyl)-3-(methoxymethyl)-3,4-dihydropyrrolo[1,2-a] pyrazine-1(2H)-one]
0.0107 µM	0.0136 µM	–	–	CCn1nccc1Nc1cc(-c2cc3n(c2)C[C@H](COC)N(Cc2cc(F)ccc2CO)C3=O)c(Cl)cn1 [Example 52, (R)-7-(5-chloro-2-((1-ethyl-1H-pyrazol-5-yl)amino)pyridin-4-yl)-2-(5-fluoro-2-(hydroxymethyl)benzyl)-3-(methoxymethyl)-3,4-dihydropyrrolo[1,2-a]pyrazine-1(2H)-one]
